Laboratory results as given in the METLIN SMRT retention time set (Domingo-Almenara et al. 2019).

Assay: gradient 5% acetonitrile 3 min, to 50% in 2 min, to 85% in 15 min, held 3 min, 100 µL/min
Settings: column: Zorbax Extend-C18 2.1 x 50 mm; eluents: water / acetonitrile, 0.1% formic acid
In short: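 Pure standards were run in mixtures of ~100 molecules by HPLC coupled to a quadrupole time-of-flight mass spectrometer. The column was a Zorbax Extend-C18 (2.1 × 50 mm, 1.8 μm) at 100 μL/min, with water and acetonitrile each containing 0.1% formic acid, in positive and negative ionization mode. Dead and dwell volumes were 40 μL and 900 μL. Retention time was taken from computationally picked adduct peaks, each manually inspected, with data collected over 3 months.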

Row | RP-LC retention time [s] | Structure (SMILES)
1 | 643 | COC(=O)c1cnc2nc(C)ccc2c1Nc1cc(OC)c(OC)c(OC)c1
2 | 1090 | CC1=NS(=O)(=O)N(Cc2ccccc2)C=C1C(=O)OCc1ccc(F)cc1F
3 | 1280 | Cc1cc(C(=O)Nc2ccccc2Cl)nc2cc(-c3ccco3)nn12
4 | 564 | COc1ccc(CCS(=O)(=O)NCC2CCN(Cc3cccs3)CC2)cc1
5 | 851 | O=c1ccn(-c2cccc(F)c2)nc1-c1nc(-c2ccccc2)no1
6 | 916 | Cc1ccc(CNC(=O)c2ccc3cnn(Cc4ccc(F)cc4)c3c2)o1
7 | 902 | CCc1noc(NC(C)=O)c1-c1ccc(C)c(S(=O)(=O)Nc2ccc(C(F)(F)F)cc2)c1
8 | 901 | CCn1cc(C(=O)Nc2ccc(C)c(F)c2)c(S(=O)(=O)N2CCSCC2)n1
9 | 978 | Cn1c(C(=O)N2CCC(C(=O)NCc3ccccc3Cl)CC2)cc2oc3ccccc3c21
10 | 830 | COc1ccc(OC)c(NC(=O)C2CCCN2S(=O)(=O)c2cc3c(cc2C)NC(=O)C(C)O3)c1 (stereo unspecified)
11 | 620 | CCc1nc(N)n(CC(=O)Nc2cc(F)ccc2C)c(=O)c1C
12 | 1190 | Cc1nn(-c2ccc(F)cc2)c2nc(N3CCCC(C(=O)NCc4ccc(Cl)cc4)C3)sc12 (stereo unspecified)
13 | 648 | Fc1ccc(-c2nnc(-c3ccc(-n4ccnc4)nc3)o2)cc1
14 | 848 | Cc1nn2c(CNS(=O)(=O)c3cc(F)ccc3F)c(-c3ccccc3)nc2s1
15 | 732 | CCOC1CCN(C(=O)Nc2ccccc2C)CC1
16 | 631 | COc1cc(-n2c(C)nc3cc(C(=O)NCC4CCCO4)ccc32)cc(OC)c1OC (stereo unspecified)
17 | 611 | CCOC(=O)C1=C(CN2CCC(C)CC2)NC(=O)NC1c1cccs1 (stereo unspecified)
18 | 699 | CCOc1ccc(CNC(=O)Cc2nnc(-c3ccccn3)o2)cc1
19 | 1080 | CCc1cc(=O)n(CC(=O)Nc2cccc(C#N)c2)c(-c2ccccc2)n1
20 | 731 | CCN1CCN(c2nc(F)c(F)c(S(=O)(=O)CCNc3cccc(C(F)(F)F)c3)c2F)CC1
21 | 803 | CCOc1ccc(N2CC(c3nnc(NC(=O)c4ccc(Cl)cc4)o3)CC2=O)cc1 (stereo unspecified)
22 | 600 | CN1CCN(C(=O)c2c3c(nc4ccccc24)C(=O)N(C2CCCCC2)C3)CC1

Row | RP-LC retention time [s] | Structure (SMILES)
23 | 616 | Cc1ccc(S(=O)(=O)N2CCn3c(nnc3C3CCN(C(C)C)C3)C2)c(C)c1 (stereo unspecified)
24 | 777 | COCc1noc([C@@H]2CC(F)(F)CN2C(=O)C2CC=CC2)n1
25 | 641 | CN(C)c1ncncc1N1CCC(C(=O)N2CCN(c3ccc(F)cc3)CC2)CC1
26 | 884 | O=C1CCCC1C(=O)Nc1ccc2ccccc2c1 (stereo unspecified)
27 | 778 | CC(C)N1CCn2cc(S(=O)(=O)Nc3ccc(F)cc3Cl)cc2C1=O
28 | 742 | CCC(=O)N1CCc2cc(N3CC(C(=O)Nc4ccc(C)cc4C)CC3=O)ccc21 (stereo unspecified)
29 | 1020 | O=C(NCc1cccc(Cl)c1)C1CCCN(c2nccnc2Oc2ccccc2)C1 (stereo unspecified)
30 | 931 | CCCn1cc(CCNS(=O)(=O)c2ccc(F)c(Cl)c2)c2cccnc21
31 | 660 | O=C(NC1CCCCC1)c1nc(-c2ccncc2)cs1
32 | 1300 | CCOc1ccc(-n2c(N3CCC(C)CC3)nc3cc(C(=O)OC)ccc3c2=O)cc1
33 | 917 | CCN1C(=O)c2ccccc2Sc2cc(-c3noc(CNC(=O)c4cccs4)n3)ccc21
34 | 896 | O=C(NCc1ccc(Cl)cc1)c1ccc(NC(=O)C2CCC2)cc1N1CCOCC1
35 | 994 | CN(C)c1ccc(-c2noc(C3CC(=O)N(c4ccc(F)cc4)C3)n2)cc1 (stereo unspecified)
36 | 629 | CCC(C(=O)NCCN1CCN(C)CC1)n1nc(C)c2sc3ccccc3c2c1=O (stereo unspecified)
37 | 728 | COc1ccccc1NC(=O)C1CC(=O)N(c2n[nH]c3cccc(F)c23)C1 (stereo unspecified)
38 | 515 | Cc1cccc2nnc(N3CCN(C(=O)c4cccnc4)CC3)n12
39 | 828 | CN1C(=O)c2cccnc2Sc2cc(NC(=O)C3CCCCC3)ccc21
40 | 754 | Cn1cc(C2=CCN(C(=O)NC3CCCC3)CC2)c2cccnc21
41 | 806 | CC(C)(C)c1[nH]cnc1/C=c1\[nH]c(=O)/c(=C/c2ccccc2)[nH]c1=O
42 | 564 | CC(C)CCNC(=O)C1CCN(c2cncnc2N(C)C)CC1
43 | 817 | Cc1ccc(-n2nc3c(=O)n(CCCC(=O)NCc4ccc(C)o4)nc(C)c3c2C)cc1
44 | 641 | CCN1CCN(C(=O)c2cnn(-c3cc(-c4nc(C5CC5)no4)ccn3)c2C)CC1

Row | RP-LC retention time [s] | Structure (SMILES)
45 | 645 | Cc1ccc2nc(C(=O)NCc3ccc(F)cc3)cn2c1
46 | 678 | CCCCNC(=O)c1cn(-c2ccc(NC(=O)CC)cn2)cn1
47 | 1130 | Cc1ccc(-c2noc(Cc3nnc(-c4cccc(C)c4)o3)n2)cc1
48 | 670 | OC(CN1CCN(c2ccccc2Cl)CC1)c1ccc2c(c1)OCO2 (stereo unspecified)
49 | 1160 | O=C(COc1ccccc1-c1nnc(-c2ccccc2)o1)Nc1ccc2c(c1)OCCO2
50 | 924 | CC1(C)CC(=O)c2cn(-c3ccccc3)c(=O)c(C(=O)NCc3cccs3)c2C1
51 | 804 | Cc1noc(-c2ccc(=O)n(Cc3nc(-c4ccccc4)oc3C)c2)n1
52 | 1160 | Cc1nc(-c2ccc(-c3noc(COc4ccc(F)cc4)n3)cc2)cs1
53 | 602 | O=C(c1ccc2c(c1)OCO2)N(CCc1cscn1)Cc1cccnc1
54 | 742 | O=C([C@@H]1C[C@H](F)CN1C(=O)c1cccc(Br)c1)N1CCCCC1
55 | 790 | CCn1cc(S(=O)(=O)Nc2ccccc2F)c2cccnc21
56 | 787 | COc1ccc(CN2CC3(CCN(S(=O)(=O)C(C)C)CC3)C2=O)cc1
57 | 653 | CC1=C(c2ccc(C)cc2)S(=O)(=O)N=C1N1CCCN(C(=O)c2ccco2)CC1
58 | 984 | CC(C(=O)Nc1ccc(F)c(F)c1)C1CCN(C(=O)Nc2ccc(Cl)cc2)CC1 (stereo unspecified)
59 | 739 | CCc1ccc(NC(=O)N(C)CC2CCOC2)cc1 (stereo unspecified)
60 | 1080 | O=C1C2N=NN(Cc3nc(-c4ccc(Br)cc4)no3)C2C(=O)N1c1cccc(F)c1 (stereo unspecified)
61 | 619 | CCn1ccc(C(=O)N2CCC(Cc3nc4cccnc4n3CC(C)C)C2)n1 (stereo unspecified)
62 | 673 | CCN(Cc1ccccc1)C(=O)Cn1c(N2CCOCC2)nc(C)cc1=O
63 | 1030 | CCN(CC)S(=O)(=O)c1cc(-c2nnc(-c3ccc(OC)cc3)o2)ccc1C
64 | 834 | CCOC(=O)C(=O)Nc1ccc(C(F)(F)F)cc1

Row | Structure (SMILES) | RP-LC retention time [s]
65 | CC1OC(O[C@H]2C[C@@H](O)[C@]3(CO)[C@H]4[C@H](O)C[C@]5(C)[C@@H](C6=CC(=O)OC6)CC[C@]5(O)[C@@H]4CC[C@]3(O)C2)C(O)C(O)C1O (stereo partly specified) | 594
66 | Clc1ccc(C2CC3CCC2N3)cn1 (stereo unspecified) | 613
